# According to US20130252983A1, “ACTIVATING PHOSPHORYLATION SITE ON GLUTAMINASE C” (CORNELL UNIVERSITY, priority 2010, published 2013):
# How the values were obtained:
# [1] = tested on: NIH 3T3 cells stably expressing Cdc42(F28L), Rac(F28L), RhoC(F30L); test: Soft-agar colony formation of cells expressing activated Rho GTPase mutants; format: cell-based, mouse; settings: 10 μM, 14 days
# Method: FIGS. 2A-G illustrate effects of 968 on the transforming activity of constitutively active Rho GTPases and human breast cancer cells. […] Cells were scored after 14 days and plotted as the percentage of the total number of colonies greater than 50 μm in diameter. Data represent the average of 3 experiments (±s.d.). […] Data represent the average of 3 experiments (±s.d.). […] Data represent the average of 3 experiments (±s.d.). […] After 24 hours at 37° C., the migratory cells were fixed, stained with GIEMSA, and counted. Data represent the average of 3 experiments (±s.d.). […] Data represent the average of 3 experiments (±s.d.). […] Data represent the average of 3 experiments (±s.d.). […] Data represent the average of 3 experiments (±s.d.).
# [2] = tested on: GACΔC (C-terminal truncation mutant of GAC); test: Glutaminase activity of immunoprecipitated GACΔC from treated Dbl-transformed cells; format: cell-based, mouse; settings: 10 μM, 48 hours
# [3] = target: T1, mouse GAC (E. coli-expressed mouse ortholog of human GAC) (Mus musculus, UniProt D3Z7P3); test: Recombinant glutaminase activity assay; format: biochemical
# T1 construct: A plasmid encoding mouse GAC (residues 128-603) was cloned into the pET28a vector; His (N, cleaved yes); made in house; host or cells: E. coli (pET28a)
# T1 sequence (D3Z7P3 128-603 isoform D3Z7P3-2): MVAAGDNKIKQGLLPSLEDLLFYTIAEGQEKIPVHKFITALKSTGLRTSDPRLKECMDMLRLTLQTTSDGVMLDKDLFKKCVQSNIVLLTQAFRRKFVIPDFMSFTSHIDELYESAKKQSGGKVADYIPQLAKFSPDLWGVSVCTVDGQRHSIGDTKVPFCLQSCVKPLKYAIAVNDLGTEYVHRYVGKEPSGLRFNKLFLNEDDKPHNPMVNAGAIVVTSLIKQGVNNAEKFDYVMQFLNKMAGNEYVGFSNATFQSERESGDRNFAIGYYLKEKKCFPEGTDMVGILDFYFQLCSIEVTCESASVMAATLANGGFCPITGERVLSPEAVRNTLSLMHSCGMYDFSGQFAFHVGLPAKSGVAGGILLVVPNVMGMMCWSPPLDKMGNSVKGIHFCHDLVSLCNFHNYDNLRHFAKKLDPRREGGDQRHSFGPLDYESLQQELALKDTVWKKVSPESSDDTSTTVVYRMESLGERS
# Method: 100%=620 moles of glutamine hydrolyzed per minute per mole of enzyme. Data represent the average of 3 experiments (±s.d.). […] Following precipitation of the beads and re-suspension, the samples were analyzed by Western blotting with anti-V5 antibody. […] Data represent the average of 3 experiments (±s.d.). […] Data represent the average of 3 experiments (±s.d.). […] Data represent the average of 3 experiments (±s.d.). FIG. 3E NIH 3T3 cells transiently expressing Dbl were assayed for focus formation in the presence of 10 μM 968 alone or together with 7 mM dimethyl α-ketoglutarate. […] 100%=680 nM glutamine hydrolyzed per minute per 10^5 cells. Data are the average of 3 experiments (±s.d.). […] 100%=750 nM glutamine hydrolyzed per minute per 10^5 cells. Data represent the average of 3 experiments (±s.d.).
# The activity of the E. coli-expressed recombinant mouse ortholog of human GAC were assayed in the presence of 0 ([…]), 10 (∇) or 20 (▪) μM 968 and inorganic phosphate in the form of dipotassium hydrogen phosphate. […] The data are plotted as GA activity as function of varying concentrations of glutamine or inorganic phosphate. The data are the average of 3 experiments and are plotted as mean±SEM.
# Glutaminase activity assays were performed on recombinant enzyme as previously described (Kenny et al., “Bacterial Expression, Purification and Characterization of Rat Kidney-Type Mitochondrial Glutaminase,” Protein Expr. Purif. 31:140-148 (2003), which is hereby incorporated by reference in its entirety). A plasmid encoding mouse GAC (residues 128-603) was cloned into the pET28a vector and the protein was expressed with an N-terminal histidine (His)-tag. The tag was cleaved using thrombin and the protein was further purified by anion-exchange and gel-filtration chromatography. […] The reaction mixture was incubated at room temperature for 45 minutes and the absorbance at 340 nm was recorded for each sample against a water blank. The absorbance of the sample with just the cocktail mixture was subtracted from each reading to calculate the activity of the enzyme.
compound,measurement,setting,value
"CN(C)c1ccc(C2Nc3ccc4ccccc4c3C3=C2C(=O)CC(C)(C)C3)cc1Br (stereo not shown) [Compound 968, 5-[3-bromo-4-(dimethylamino)phenyl]-2,2-dimethyl-2,3,5,6-tetrahydrobenzo[a]]",colony formation in soft-agar,[1],blocking their ability
same,basal activity of GACΔC,[2],not further reduced
same,inhibition of enzymatic activity of purified mouse GAC,[3],inhibits the enzymatic activity
same,mode of inhibition,"[3]; 0, 10 or 20 μM, glutamine or inorganic phosphate varied",neither competitive versus substrate (glutamine) nor inorganic phosphate
